Columns and labels:
arrowleaf sida = experiment: Test E preemergence; type: in vivo, Sida rhombifolia; conditions: for Arrowleaf Sida plant response rating: scale 0 to 100 (0 no effect, 100 complete control)
Method in brief: (§1)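 Compound in a non-phytotoxic solvent mixture with surfactant was applied preemergence to seeds in silt loam soil, or postemergence to plants 2 to 18 cm tall grown in peat-based potting medium. Plants were kept in a greenhouse for 14 to 21 days, then rated visually against untreated controls on a 0 (no effect) to 100 (complete control) scale.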

goosegrass = experiment: Test E preemergence; type: in vivo, Eleusine indica; conditions: for Goosegrass plant response rating: scale 0 to 100 (0 no effect, 100 complete control)
Method in brief: as §1

sedge, umbrella = experiment: Test C flooded paddy test; type: in vivo, Cyperus difformis; conditions: Flood, scale 0 to 100 (0 no effect, 100 complete control), 13 to 15 days
Method in brief: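 Ratings were visual and made relative to untreated controls after 13 to 15 greenhouse days.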

barnyardgrass = experiment: Test E preemergence; type: in vivo, Echinochloa crus-galli; conditions: for Barnyardgrass plant response rating: scale 0 to 100 (0 no effect, 100 complete control)
Method in brief: as §1

soybean = experiment: Test E preemergence; type: in vivo, Glycine max; conditions: for Soybean plant response rating: scale 0 to 100 (0 no effect, 100 complete control)
Method in brief: as §1

ragweed = experiment: Test E preemergence; type: in vivo, Ambrosia elatior; conditions: for Ragweed plant response rating: scale 0 to 100 (0 no effect, 100 complete control)
Method in brief: as §1

fall panicum = experiment: Test E preemergence; type: in vivo, Panicum dichotomiflorum; conditions: for Panicum, Fall plant response rating: scale 0 to 100 (0 no effect, 100 complete control)
Method in brief: as §1

morningglory = experiment: Test E preemergence; type: in vivo, Ipomoea coccinea; conditions: for Morningglory plant response rating: scale 0 to 100 (0 no effect, 100 complete control)
Method in brief: as §1

dayflower = experiment: Test E preemergence; type: in vivo, Commelina virginica; conditions: for Dayflower, VA plant response rating: scale 0 to 100 (0 no effect, 100 complete control)
Method in brief: as §1

palmer pigweed = experiment: Test E preemergence; type: in vivo, Amaranthus palmeri; conditions: for Pigweed, Palmer plant response rating: scale 0 to 100 (0 no effect, 100 complete control)
Method in brief: as §1

Italian ryegrass = experiment: Test E preemergence; type: in vivo, Lolium multiflorum; conditions: for Ryegrass, Italian plant response rating: scale 0 to 100 (0 no effect, 100 complete control)
Method in brief: as §1

johnsongrass = experiment: Test E preemergence; type: in vivo, Sorghum halepense; conditions: for Johnsongrass plant response rating: scale 0 to 100 (0 no effect, 100 complete control)
Method in brief: as §1

[1] = Preemergence, 62 g ai/ha, scale 0 to 100, 0 no effect, 100 complete control
[2] = preemergence, 125 g ai/ha, scale 0 to 100, 0 no effect, 100 complete control
[3] = preemergence, 250 g ai/ha, scale 0 to 100, 0 no effect, 100 complete control
[4] = 125 g ai/ha, scale 0 to 100, 0 no effect, 100 complete control
[5] = 250 g ai/ha, scale 0 to 100, 0 no effect, 100 complete control
[6] = 8 g ai/ha, preemergence, scale 0 to 100, 0 is no effect, 100 is complete control
[7] = 8 g ai/ha, scale 0 to 100, 0 is no effect, 100 is complete control

## N#Cc1cccc(Oc2ncc(Br)cn2)c1-n1cc(C(F)(F)F)cn1 [Compound 59, 3-[(5-bromo-2-pyrimidinyl)oxy]-2-[4-(trifluoromethyl)-1H-pyrazol-1-yl]benzonitrile]
Arrowleaf sida; 16 g ai/ha, preemergence
  Arrowleaf Sida plant response rating: 50
Arrowleaf sida; 31 g ai/ha, preemergence
  Arrowleaf Sida plant response rating: 50
Arrowleaf sida; [1]
  Plant response rating, Arrowleaf Sida: 75
Arrowleaf sida; [2]
  Plant response rating, Arrowleaf Sida: 100
Arrowleaf sida; [3]
  Plant response rating, Arrowleaf Sida: 100
goosegrass; 16 g ai/ha
  Goosegrass plant response rating: 15
goosegrass; 31 g ai/ha
  Goosegrass plant response rating: 25
goosegrass; 62 g ai/ha
  Goosegrass plant response rating: 65
goosegrass; [4]
  Plant response rating, Goosegrass: 98
goosegrass; [5]
  Plant response rating, Goosegrass: 98
sedge, umbrella; 31 g ai/ha
  Plant response rating, Sedge, Umbrella: 60
sedge, umbrella; 62 g ai/ha
  Plant response rating, Sedge, Umbrella: 80
sedge, umbrella; 125 g ai/ha
  Plant response rating, Sedge, Umbrella: 90
sedge, umbrella; 250 g ai/ha
  Plant response rating, Sedge, Umbrella: 95
barnyardgrass; 16 g ai/ha, preemergence
  Barnyardgrass plant response rating: 0
barnyardgrass; 31 g ai/ha, preemergence
  Barnyardgrass plant response rating: 20
barnyardgrass; [1]
  Plant response rating, Barnyardgrass: 50
barnyardgrass; [2]
  Plant response rating, Barnyardgrass: 75
barnyardgrass; [3]
  Plant response rating, Barnyardgrass: 95
soybean; 16 g ai/ha
  Soybean plant response rating: 0
soybean; 31 g ai/ha
  Soybean plant response rating: 0
soybean; [4]
  Plant response rating, Soybean: 50
soybean; [5]
  Plant response rating, Soybean: 95
ragweed; 16 g ai/ha
  Ragweed plant response rating: 0
ragweed; 31 g ai/ha
  Ragweed plant response rating: 0
ragweed; 62 g ai/ha
  Ragweed plant response rating: 0
ragweed; [4]
  Plant response rating, Ragweed: 5
ragweed; [5]
  Plant response rating, Ragweed: 50
Fall panicum; 16 g ai/ha
  Panicum, Fall plant response rating: 50
Fall panicum; 31 g ai/ha
  Panicum, Fall plant response rating: 75
Fall panicum; 62 g ai/ha
  Panicum, Fall plant response rating: 98
Fall panicum; [4]
  Plant response rating, Panicum, Fall: 100
Fall panicum; [5]
  Plant response rating, Panicum, Fall: 100
morningglory; 16 g ai/ha
  Morningglory plant response rating: 0
morningglory; 31 g ai/ha
  Morningglory plant response rating: 15
morningglory; 62 g ai/ha
  Morningglory plant response rating: 65
morningglory; [4]
  Plant response rating, Morningglory: 75
morningglory; [5]
  Plant response rating, Morningglory: 100
dayflower; 16 g ai/ha
  Dayflower, VA plant response rating: 0
dayflower; 31 g ai/ha
  Dayflower, VA plant response rating: 5
dayflower; 62 g ai/ha
  Dayflower, VA plant response rating: 25
dayflower; [4]
  Plant response rating, Dayflower, VA: 85
dayflower; [5]
  Plant response rating, Dayflower, VA: 98
Palmer pigweed; 16 g ai/ha
  Pigweed, Palmer plant response rating: 35
Palmer pigweed; 31 g ai/ha
  Pigweed, Palmer plant response rating: 100
Palmer pigweed; 62 g ai/ha
  Pigweed, Palmer plant response rating: 100
Palmer pigweed; [4]
  Plant response rating, Pigweed, Palmer: 100
Palmer pigweed; [5]
  Plant response rating, Pigweed, Palmer: 100
Italian ryegrass; 16 g ai/ha
  Ryegrass, Italian plant response rating: 0
Italian ryegrass; 31 g ai/ha
  Ryegrass, Italian plant response rating: 0
Italian ryegrass; 62 g ai/ha
  Ryegrass, Italian plant response rating: 50
Italian ryegrass; [4]
  Plant response rating, Ryegrass, Italian: 75
Italian ryegrass; [5]
  Plant response rating, Ryegrass, Italian: 95
johnsongrass; 16 g ai/ha
  Johnsongrass plant response rating: 0
johnsongrass; 31 g ai/ha
  Johnsongrass plant response rating: 0
johnsongrass; 62 g ai/ha
  Johnsongrass plant response rating: 60
johnsongrass; [4]
  Plant response rating, Johnsongrass: 75
johnsongrass; [5]
  Plant response rating, Johnsongrass: 100

## Fc1cccc(Oc2ncc(Cl)cn2)c1-n1cc(I)cn1 [Compound 179]
Arrowleaf sida; [6]
  Plant response rating, Arrowleaf Sida: 0
Arrowleaf sida; 16 g ai/ha, preemergence
  Arrowleaf Sida plant response rating: 20
Arrowleaf sida; 62 g ai/ha, preemergence
  Arrowleaf Sida plant response rating: 100
Arrowleaf sida; [2]
  Plant response rating, Arrowleaf Sida: 100
goosegrass; [7]
  Plant response rating, Goosegrass: 0
goosegrass; 62 g ai/ha
  Goosegrass plant response rating: 35
goosegrass; [4]
  Plant response rating, Goosegrass: 70
sedge, umbrella; 31 g ai/ha
  Plant response rating, Sedge, Umbrella: 0
sedge, umbrella; 62 g ai/ha
  Plant response rating, Sedge, Umbrella: 0
sedge, umbrella; 125 g ai/ha
  Plant response rating, Sedge, Umbrella: 40
sedge, umbrella; 250 g ai/ha
  Plant response rating, Sedge, Umbrella: 80
barnyardgrass; [6]
  Plant response rating, Barnyardgrass: 0
barnyardgrass; 16 g ai/ha, preemergence
  Barnyardgrass plant response rating: 0
barnyardgrass; 62 g ai/ha, preemergence
  Barnyardgrass plant response rating: 10
barnyardgrass; [2]
  Plant response rating, Barnyardgrass: 20
soybean; [7]
  Plant response rating, Soybean: 0
soybean; 62 g ai/ha
  Soybean plant response rating: 25
soybean; [4]
  Plant response rating, Soybean: 40
ragweed; [7]
  Plant response rating, Ragweed: 0
ragweed; 62 g ai/ha
  Ragweed plant response rating: 0
ragweed; [4]
  Plant response rating, Ragweed: 0
Fall panicum; [7]
  Plant response rating, Panicum, Fall: 0
Fall panicum; 62 g ai/ha
  Panicum, Fall plant response rating: 75
Fall panicum; [4]
  Plant response rating, Panicum, Fall: 98
morningglory; [7]
  Plant response rating, Morningglory: 0
morningglory; 62 g ai/ha
  Morningglory plant response rating: 10
morningglory; [4]
  Plant response rating, Morningglory: 30
dayflower; [7]
  Plant response rating, Dayflower, VA: 0
dayflower; 16 g ai/ha
  Dayflower, VA plant response rating: 0
dayflower; 62 g ai/ha
  Dayflower, VA plant response rating: 0
dayflower; [4]
  Plant response rating, Dayflower, VA: 60
Palmer pigweed; [7]
  Plant response rating, Pigweed, Palmer: 0
Palmer pigweed; 62 g ai/ha
  Pigweed, Palmer plant response rating: 100
Palmer pigweed; [4]
  Plant response rating, Pigweed, Palmer: 100
Italian ryegrass; [7]
  Plant response rating, Ryegrass, Italian: 0
Italian ryegrass; 62 g ai/ha
  Ryegrass, Italian plant response rating: 15
Italian ryegrass; [4]
  Plant response rating, Ryegrass, Italian: 15
johnsongrass; [7]
  Plant response rating, Johnsongrass: 0
johnsongrass; 62 g ai/ha
  Johnsongrass plant response rating: 20
johnsongrass; [4]
  Plant response rating, Johnsongrass: 25

— patent publication US9695155B2, “Herbicidal substituted pyrimidinyloxy benzene compounds” (E. I. DU PONT DE NEMOURS AND COMPANY, priority 2013, dated 2017)
